From patent US12715851B2, “4′-substituted analogues of fisetin and their use in the treatment of cancer” (Stellenbosch University, priority 2020, dated 2026)

Columns and labels:
[1] = tested on: glutathione S-transferase (GST); experiment: Hepatotoxicity: specific activity of glutathione S-transferase; type: in vivo, swiss albino mice; details: liver of treated mice
Method: (§1) Hepatotoxicity is considered to be one of the major challenges for drug development schemes. The liver is the primary organ for the metabolism or biotransformation of a given drug. To assess the hepatotoxicity of these compounds, the effects of Fisetin and analogue 3c on various hepatic enzymes was assessed.
(§2) A lipid peroxidation assay was performed on microsomal liver fraction and determined in terms of TBARS formation. […] The modulatory effects of Fisetin and analogue 3c were determined on the specific activities of cytochrome b5 reductase (Cytb5R) and cytochrome P450 reductase (CytP450R), phase I enzyme of xenobiotic metabolism. Fisetin and analogue 3c caused reduction in the specific activity of cytochrome b5 reductase. Fisetin decreased Cytb5R specific activity by 66% whereas analogue 3c (50 mg/kg) caused a 36% reduction in specific activity (FIG. 7F). An increase in specific activity of CytP450R by Fisetin and analogue 3c was observed. Fisetin and analogue 3c (50 mg/kg) increased the specific activity by 15% and 13%, respectively (FIG. 7G). Next, the specific activities of phase II enzymes, glutathione S-transferase (GST) and reduced glutathione (GSH) were measured. […] Fisetin and analogue 3c (50 mg/kg) caused a decrease in specific activity of GSH by 34% and 7%, respectively (FIG. 7I). […] These analogues are therefore likely to be effective and safe phytochemicals.

[2] = tested on: lipid peroxidation (MDA formation); experiment: Hepatotoxicity: lipid peroxidation assay on microsomal liver fraction (TBARS); type: in vivo, swiss albino mice; details: microsomal liver fraction of treated mice
Method: as §1, §2

[3] = tested on: cytochrome P450 reductase (CytP450R); experiment: Hepatotoxicity: specific activity of cytochrome P450 reductase; type: in vivo, swiss albino mice; details: 50 mg/kg orally, two weeks
Method: as §1, §2

[4] = cited from earlier work
[5] = tested on: B(a)P-induced lung carcinogenesis; experiment: B(a)P-induced lung carcinogenesis, Initiation and Promotion Protocols; type: in vivo, Swiss albino mice
Description: To assess whether Fisetin and its 4-bromo-Fisetin analogue (Fisetin analogue 3c) have anticarcinogenesis activity and if any toxicity in terms of water and food consumption, and body weight, Benzo[a]pyrene [B(a)P] induced lung carcinogenesis in Swiss albino mice were employed in the study. Along with the antitumor activity of the agents, the body weight, food and water intake in different treatment groups were monitored on regular intervals and analysed.
There were six different treatment groups in the study including, (1) control, (2) B(a)P, (3) Fisetin+B(a)P, (4) Fisetin analogue 3c+B(a)P, (5) B(a)P+Fisetin and (6) B(a)P+Fisetin analogue 3c.
Groups 3 and 4 represent the Initiation Protocol (agents treatment started 1 week before carcinogen treatment and continued 1 week after the last dose of the carcinogen). Groups 5 and 6 represent the Promotion Protocol (agents treatment started after 3 weeks of the carcinogen treatment). The B(a)P was given orally twice a week for 4 weeks at 50 mg/kg body weight dose, whereas Fisetin and Fisetin analogue (3c) were administered orally at 25 mg/kg body weight thrice weekly (see FIG. 9).

SOD = experiment: Hepatotoxicity: specific activity of SOD; type: in vivo, swiss albino mice; details: liver of treated mice
Method: as §1, §2

[6] = tested on: cytochrome b5 reductase (Cytb5R); experiment: Hepatotoxicity: specific activity of cytochrome b5 reductase; type: in vivo, swiss albino mice; details: 50 mg/kg orally, two weeks
Method: as §1, §2

[7] = tested on: reduced glutathione (GSH); experiment: Hepatotoxicity: reduced glutathione; type: in vivo, swiss albino mice; details: 50 mg/kg orally, two weeks
Method: as §1, §2

[8] = Acute toxicity, fed orally for two weeks; type: in vivo; details: Fisetin 50 mg/kg, 3c 25 and 50 mg/kg body weight
Method: Fisetin analogue 3c was used to assess the potential toxicity of these analogues in a pre-clinical model. To test the acute toxicity, Fisetin (50 mg/kg body weight), analogue 3c (25 mg/kg and 50 mg/kg body weight), and vehicle control (5% DMSO, 45% PEG-300 and 50% saline) was fed orally for two weeks. Abnormal clinical signs such as decreased motor activity, sensory reflection, body weight, food intake, and water intake were monitored during the treatment period. An increase in body weight was observed among all groups throughout the treatment period (FIG. 7A). […] This variation could be due to consistent frequency of dosage.

[9] = tested on: 22rv1 prostate carcinoma cells; details: retained on methylation of the 3-hydroxy group; cited from earlier work
[10] = tested on: a range of cancer cell lines; details: reported in the literature; cited from earlier work

With `O=c1c(O)c(-c2ccc(O)c(O)c2)oc2cc(O)ccc12` [Fisetin] the “specific activities of GST compared to the control group” value [1] was “did not cause significant change”, the “MDA formation (TBARS)” value [2] was “No significant change” and the “increase in specific activity of CytP450R” value [3] was 15%. The “pKa of the 4′-hydroxyl group” value [4] was ~ 9.4, the “pKa of the 7-hydroxyl group” value ([4]; most acidic position) was ~ 7.3 and the “systemic toxicity during long-term application” value ([5]; 25 mg/kg orally thrice weekly) was “did not show any systemic toxicity”. For the same molecule, the “tumorigenic features in lung histology (nucleus size, cytoplasmic content, alveoli)” value ([5]; 25 mg/kg orally thrice weekly) was “reversal of the tumorigenic features”, the “tumor incidence, histopathology of H&E stained serial sections” value ([5]; compared to the carcinogen treated group) was “less” and the “area or size of tumor lesions, in words” value ([5]; tumor initiation phase / initiation protocol) was “not effective as compared to the analogue”. For the same molecule, the “tumor lesions per mouse and total number of lesions per group, in words” value ([5]; versus B(a)P group) was “strongly reduced”, the “specific activity of SOD” value (SOD) was “moderately induced” and the “reduction in specific activity of cytochrome b5 reductase” value [6] was 66%. For the same molecule, the “decrease in specific activity of GSH” value [7] was 34% and the “toxicity in mice, in words” value [8] was “did not cause toxicity”.

In the case of `COc1cc(-c2oc3ccccc3c(=O)c2O)cc(OC)c1OC` [TMFol], the “activity against 22rv1 prostate carcinoma cells” value [9] is listed as “low micromolar activity”.

In the case of `O=C1C[C@@H](c2ccc(O)cc2)Oc2cc(O)cc(O)c21` [navingenin], the “activity against cancer cell lines compared to apigenin” value [10] is given as “inactive”.
